In patent US11840686B2, “Modulation of prekallikrein (PKK) expression” (Ionis Pharmaceuticals, Inc., priority 2013, dated 2023):
Strand notation (5' to 3'): a small letter for the sugar, then the base; units joined by * are phosphorothioate-linked, units joined directly phosphodiester-linked; [ ] holds rarer units or linkages, { } end groups; capitals alone tell only the bases. e = 2'-O-(2-methoxyethyl) (MOE); [5mC] = 5-methylcytosine; d = 2'-deoxy (DNA)

system: human PKK mRNA; assay: Antisense inhibition of human PKK mRNA in HepaRG cells, 5,000 nM (Example 2); type: cell-based; details: HepaRG cells, 5,000 nM antisense oligonucleotide, human PKK mRNA; Table 18
Procedure, shortened: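 qRT-PCR (RTS3454) read-out, RIBOGREEN-normalized; % inhibition vs untreated cells. HepaRG, 20,000 cells/well, electroporation, 5,000 nM ASO, ~24 h.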

| Substance | % inhibition |
| --- | --- |
| 548728 (DNA eT*eA*e[5mC]*eT*dA*dG*dT*dT*dT*d[5mC]*d[5mC]*dT*dA*dT*eA*eA*e[5mC]; antisense) [compound 548728] | 0% |

same assay, conditions: HepaRG cells, 5,000 nM antisense oligonucleotide; 5-10-5 gapmers; Table 16

| Substance | % inhibition |
| --- | --- |
| 546913 (eG*eT*eA*e[5mC]*e[5mC]*dT*dA*dT*dA*dT*d[5mC]*dA*d[5mC]*dT*dG*eT*eA*eA*e[5mC]*eT; antisense) [compound 546913] | 38% |

same assay, conditions: HepaRG cells, 5,000 nM antisense oligonucleotide; 5-10-5 gapmers; Table 17

| Substance | % inhibition |
| --- | --- |
| 547758 (antisense e[5mC]*e[5mC]*eA*eA*eG*dT*dA*dG*dT*dG*d[5mC]*dA*dA*dG*dG*e[5mC]*eA*eT*eG*eT) [compound 547758] | 24% |
| 547776 (antisense eG*eG*eA*eG*eA*dG*dA*dG*dA*d[5mC]*dG*dG*d[5mC]*dA*d[5mC]*e[5mC]*e[5mC]*eT*eG*eT) [compound 547776] | 48% |

same assay, conditions: HepaRG cells, electroporation with 5,000 nM antisense oligonucleotide, approximately 24 hours, PKK mRNA by RT-PCR (RTS3454), relative to untreated control cells; Table 5 experiment

| Substance | % inhibition |
| --- | --- |
| 547289 (antisense eT*eT*e[5mC]*eA*eT*dA*dG*dA*dG*dT*dT*dG*dA*dG*dT*e[5mC]*eA*eG*eA*e[5mC]) [compound 547289] | 74% |
| 547269 (eA*eA*eT*eG*eA*dA*d[5mC]*dG*dG*dT*d[5mC]*dT*dT*d[5mC]*dA*eA*eG*e[5mC]*eT*eG; antisense) [compound 547269] | 56% |
| 547286 (antisense eA*eG*eA*e[5mC]*eA*dT*d[5mC]*d[5mC]*dA*d[5mC]*dA*dG*dG*dA*dA*eA*e[5mC]*eT*eG*eT) [compound 547286] | 68% |
| 547282 (antisense eT*eT*eG*e[5mC]*eT*dT*dG*d[5mC]*dT*dT*dG*dA*dA*dT*dA*eA*eA*eA*eT*e[5mC]) [compound 547282] | 53% |

same assay, conditions: HepaRG cells, electroporation with 5,000 nM antisense oligonucleotide, approximately 24 hours, PKK mRNA by RT-PCR (RTS3454), relative to untreated control cells; Table 6 experiment

| Substance | % inhibition |
| --- | --- |
| 546183 (antisense e[5mC]*eA*e[5mC]*eT*eT*dA*dT*dT*dT*dG*dA*dT*dG*dA*d[5mC]*e[5mC]*eA*e[5mC]*eA*eT) [compound 546183] | 69% |
| 547354 (eA*eT*eT*eG*eT*dT*d[5mC]*d[5mC]*dG*dG*dT*dA*d[5mC]*dT*d[5mC]*eT*eG*e[5mC]*e[5mC]*eT; antisense) [compound 547354] | 89% |

same assay, conditions: HepaRG cells, electroporation, 5,000 nM antisense oligonucleotide, approx. 24 hours, primer probe set RTS3454, relative to untreated control cells; Table 11

| Substance | % inhibition |
| --- | --- |
| 547489 (antisense eA*eG*eA*e[5mC]*eA*d[5mC]*d[5mC]*dA*dG*dG*dT*dT*dG*d[5mC]*dT*e[5mC]*e[5mC]*e[5mC]*eT*eG) [compound 547489] | 34% |

same assay, conditions: HepaRG cells, electroporation, 5,000 nM antisense oligonucleotide, approx. 24 hours, primer probe set RTS3454, relative to untreated control cells; Table 12

| Substance | % inhibition |
| --- | --- |
| 547535 (antisense eA*eG*eA*e[5mC]*eA*dG*d[5mC]*d[5mC]*d[5mC]*dA*d[5mC]*d[5mC]*dA*dA*d[5mC]*eA*eA*eT*e[5mC]*eT) [compound 547535] | 28% |
| 546406 (eT*eG*eT*e[5mC]*e[5mC]*dT*dG*dT*d[5mC]*dA*dA*d[5mC]*dA*dT*dA*eT*eT*e[5mC]*e[5mC]*eA; antisense) [compound 546406] | 80% |
| 546395 (eT*eT*e[5mC]*eA*e[5mC]*dA*dA*d[5mC]*dA*d[5mC]*dA*d[5mC]*dA*dG*dT*e[5mC]*eA*eT*eG*eG; antisense) [compound 546395] | 72% |

same assay, conditions: Table 7; HepaRG cells, electroporation with 5,000 nM antisense oligonucleotide, approx. 24 hours; PKK mRNA by RT-PCR (RTS3454), relative to untreated control cells

| Substance | % inhibition |
| --- | --- |
| 547377 (e[5mC]*eA*eT*eT*eT*dG*dT*dA*dT*dA*dG*dA*dA*dT*dG*eT*eA*eA*eA*eG; antisense) [compound 547377] | 6% |
| 547401 (eG*eA*eA*eT*eG*dG*d[5mC]*dA*dG*dG*dG*dT*dT*d[5mC]*dA*eG*eG*eT*eA*eA; antisense) [compound 547401] | 22% |
| 547405 (e[5mC]*eA*eA*eA*eG*dT*d[5mC]*dA*dA*d[5mC]*dT*d[5mC]*d[5mC]*d[5mC]*dG*eG*eG*eT*eA*eA; antisense) [compound 547405] | 47% |
| 547406 (e[5mC]*eT*e[5mC]*e[5mC]*eT*d[5mC]*d[5mC]*dA*dA*dA*dG*dT*d[5mC]*dA*dA*e[5mC]*eT*e[5mC]*e[5mC]*e[5mC]; antisense) [compound 547406] | 81% |
| 547376 (eG*eA*eA*eT*eG*dT*dA*dA*dA*dG*dA*dA*dG*dA*dG*eG*e[5mC]*eA*eG*eT; antisense) [compound 547376] | 43% |

same assay, conditions: Table 8; HepaRG cells, electroporation with 5,000 nM antisense oligonucleotide, approx. 24 hours; PKK mRNA by RT-PCR (RTS3454), relative to untreated control cells

| Substance | % inhibition |
| --- | --- |
| 547428 (eT*e[5mC]*eA*eA*eA*dG*dA*dG*dT*dA*dA*d[5mC]*d[5mC]*dA*dG*eA*eG*e[5mC]*eT*e[5mC]; antisense) [compound 547428] | 78% |
| 547437 (antisense e[5mC]*eT*e[5mC]*eT*e[5mC]*d[5mC]*d[5mC]*d[5mC]*dA*dA*dG*dA*dA*dG*dA*eG*eT*eT*eT*eG) [compound 547437] | 50% |
| 547417 (eT*e[5mC]*e[5mC]*eT*eT*dA*d[5mC]*dA*dG*dT*d[5mC]*dT*dT*d[5mC]*dT*eG*eG*eG*eA*eG; antisense) [compound 547417] | 68% |

same assay, conditions: Table 9 experiment; HepaRG cells, 20,000 cells per well, electroporation with 5,000 nM antisense oligonucleotide, approx. 24 hours; PKK mRNA by RT-PCR (RTS3454), relative to untreated control cells

| Substance | % inhibition |
| --- | --- |
| 547486 (antisense eT*eG*e[5mC]*eA*eA*dA*d[5mC]*dT*dA*dA*dG*dG*dG*dA*d[5mC]*e[5mC]*eA*e[5mC]*e[5mC]*eT) [compound 547486] | 89% |
| 547472 (antisense eT*e[5mC]*eA*e[5mC]*e[5mC]*dT*dT*dT*d[5mC]*dT*d[5mC]*d[5mC]*dT*dT*d[5mC]*eG*eA*eG*eA*eA) [compound 547472] | 44% |

same assay, conditions: Table 10 experiment; HepaRG cells, 20,000 cells per well, electroporation with 5,000 nM antisense oligonucleotide, approx. 24 hours; PKK mRNA by RT-PCR (RTS3454), relative to untreated control cells

| Substance | % inhibition |
| --- | --- |
| 547486 (antisense eT*eG*e[5mC]*eA*eA*dA*d[5mC]*dT*dA*dA*dG*dG*dG*dA*d[5mC]*e[5mC]*eA*e[5mC]*e[5mC]*eT) [compound 547486] | 78% |
| 547472 (antisense eT*e[5mC]*eA*e[5mC]*e[5mC]*dT*dT*dT*d[5mC]*dT*d[5mC]*d[5mC]*dT*dT*d[5mC]*eG*eA*eG*eA*eA) [compound 547472] | 42% |

same assay, conditions: Table 13; human PKK mRNA in HepaRG cells; 5-10-5 gapmers

| Substance | % inhibition |
| --- | --- |
| 546732 (eG*eG*eA*eT*eT*dT*dG*dG*d[5mC]*d[5mC]*d[5mC]*dT*dG*dA*dG*e[5mC]*e[5mC]*e[5mC]*e[5mC]*eA; antisense) [compound 546732] | 14% |
| 546780 (eA*eT*eA*e[5mC]*eT*dG*dG*d[5mC]*dT*dA*dA*dG*dT*d[5mC]*dA*eG*eG*e[5mC]*e[5mC]*e[5mC]; antisense) [compound 546780] | 83% |
| 546808 (eA*eA*eA*eA*eT*dG*dA*d[5mC]*dA*d[5mC]*d[5mC]*dA*dA*dA*dA*eT*eT*e[5mC]*eG*e[5mC]; antisense) [compound 546808] | 0% |
| 546836 (eA*eT*eA*eA*e[5mC]*dT*d[5mC]*dT*dA*dA*d[5mC]*dA*dG*dT*dA*eT*e[5mC]*eA*e[5mC]*eT; antisense) [compound 546836] | 30% |
| 546840 (e[5mC]*eT*eG*eT*e[5mC]*d[5mC]*dT*dA*dT*dA*dA*d[5mC]*dT*d[5mC]*dT*eA*eA*e[5mC]*eA*eG; antisense) [compound 546840] | 53% |
| 546837 (eT*eA*eT*eA*eA*d[5mC]*dT*d[5mC]*dT*dA*dA*d[5mC]*dA*dG*dT*eA*eT*e[5mC]*eA*e[5mC]; antisense) [compound 546837] | 0% |

same assay, conditions: human PKK mRNA, HepaRG cells, 5,000 nM antisense oligonucleotide, Table 18

| Substance | % inhibition |
| --- | --- |
| 548737 (DNA eA*e[5mC]*eT*eA*dG*dT*dT*dT*d[5mC]*d[5mC]*dT*dA*dT*eA*eA*e[5mC]*eT; antisense) [compound 548737] | 11% |
| 548747 (antisense eT*eA*e[5mC]*eT*dA*dG*dT*dT*dT*d[5mC]*d[5mC]*dT*dA*dT*eA*eA*e[5mC]*eT) [compound 548747] | 2% |
| 548746 (antisense eT*eA*eT*e[5mC]*dA*d[5mC]*dT*dG*dT*dA*d[5mC]*dT*dA*eG*eT*eT*eT) [compound 548746] | 40% |
| 548734 (DNA eT*e[5mC]*eA*e[5mC]*dT*dG*dT*dA*d[5mC]*dT*dA*dG*dT*dT*eT*e[5mC]*e[5mC]; antisense) [compound 548734] | 51% |

same assay, conditions: human PKK mRNA, HepaRG cells; 5-10-5 motif oligonucleotides targeting SEQ ID NO: 1 and 10

| Substance | % inhibition |
| --- | --- |
| 546911 (eG*eT*e[5mC]*e[5mC]*eT*dA*dT*dA*dA*d[5mC]*dT*dA*dT*dA*dA*e[5mC]*eA*eA*eT*eA; antisense) [compound 546911] | 52% |
| 546907 (eA*eT*eA*eA*e[5mC]*dT*dA*dT*dA*dA*d[5mC]*dA*dG*dT*dA*eT*e[5mC]*eA*e[5mC]*e[5mC]; antisense) [compound 546907] | 37% |
| 547638 (eA*eT*eA*eA*e[5mC]*dA*dG*dT*dA*dT*d[5mC]*dA*d[5mC]*dT*dG*eT*eA*e[5mC]*eT*eA; antisense) [compound 547638] | 87% |
| 547668 (e[5mC]*eA*eA*e[5mC]*eT*dA*dT*dA*dA*d[5mC]*dA*dG*dT*dA*dT*e[5mC]*eA*e[5mC]*eT*eG; antisense) [compound 547668] | 44% |
| 547666 (eA*eT*e[5mC]*eA*e[5mC]*dT*dG*dT*dA*d[5mC]*d[5mC]*dT*dA*dT*dA*eA*e[5mC]*eT*eA*eT; antisense) [compound 547666] | 71% |
| 547674 (eA*e[5mC]*eA*eA*eT*dA*dT*d[5mC]*dA*d[5mC]*dT*dG*dT*dA*d[5mC]*e[5mC]*eT*eT*eT*eA; antisense) [compound 547674] | 53% |
| 547665 (eT*eG*eT*eA*e[5mC]*d[5mC]*dT*dA*dT*dA*dA*d[5mC]*dT*dA*dT*eA*eA*e[5mC]*eA*eG; antisense) [compound 547665] | 10% |
| 547648 (e[5mC]*e[5mC]*eT*eA*eT*dA*dA*d[5mC]*dA*dG*dT*dA*dT*d[5mC]*dA*e[5mC]*eT*eG*eT*eA; antisense) [compound 547648] | 83% |
